The values that follow come from patent publication US12428377B2, “Sodium-hydrogen exchanger 3 inhibitor compounds” (Eli Lilly and Company, priority 2019, dated 2025).

One assay has as its target T1, human NHE3 (Homo sapiens, UniProt P48764).
T1 construct: myc; expressed in transfected cells
T1 sequence (P48764 26-834): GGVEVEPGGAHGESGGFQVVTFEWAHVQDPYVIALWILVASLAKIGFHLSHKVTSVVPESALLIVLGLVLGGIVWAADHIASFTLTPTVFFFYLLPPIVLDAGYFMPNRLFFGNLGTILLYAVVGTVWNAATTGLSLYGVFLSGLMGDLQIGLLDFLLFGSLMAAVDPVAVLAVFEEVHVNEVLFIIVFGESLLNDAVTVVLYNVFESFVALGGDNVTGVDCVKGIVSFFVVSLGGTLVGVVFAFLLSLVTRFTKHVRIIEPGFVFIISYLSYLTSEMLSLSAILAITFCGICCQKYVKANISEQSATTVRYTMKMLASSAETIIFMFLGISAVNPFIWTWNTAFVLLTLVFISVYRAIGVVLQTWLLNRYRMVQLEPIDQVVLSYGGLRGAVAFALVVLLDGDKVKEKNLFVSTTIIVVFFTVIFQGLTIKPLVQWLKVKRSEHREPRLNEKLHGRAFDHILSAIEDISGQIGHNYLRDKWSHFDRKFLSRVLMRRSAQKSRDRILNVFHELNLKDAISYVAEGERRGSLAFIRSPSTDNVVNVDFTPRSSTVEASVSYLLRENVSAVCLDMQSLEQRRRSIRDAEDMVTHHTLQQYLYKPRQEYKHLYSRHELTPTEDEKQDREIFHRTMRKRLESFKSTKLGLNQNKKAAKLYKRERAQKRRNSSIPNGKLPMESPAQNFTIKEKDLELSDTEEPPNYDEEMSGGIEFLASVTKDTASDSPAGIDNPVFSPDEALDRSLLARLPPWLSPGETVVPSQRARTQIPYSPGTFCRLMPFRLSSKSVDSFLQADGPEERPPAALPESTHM
In words: In vitro NHE3 inhibition activity (intracellular pH recovery, BCECF-AM, NHD C8 cells overexpressing human NHE3). The class given is cell-based. Particulars: geometric mean of individual IC50. An excerpt: In Vitro NHE3 Inhibition Activity
To create an NHE3 assay, cells selectively expressing NHE3 are generated by overexpressing human NHE3 in an endogenously NHE-deficient cell line. The NHE-deficient cell line is created by chemical-induced mutagenesis. After the mutagenesis, NHE-deficient cells are selected by subjecting lithium (Li) loaded cells to an acidic extracellular environment. Under these conditions, NHE exchanges intracellular Li^+ for extracellular protons, thus only NHE-deficient cells can avoid a toxic intracellular acidosis and survive.
An NHE-deficient cell line, NHD C8, is generated by mutagenesis and selection from the cell line Dede (ATCC® CCL-39™). The mutagenesis is induced by treating Dede CCL-39 cells with EMS (Sigma-Aldrich) in growth media at a final concentration of 500 μg/ml for 20 h. […]
To measure NHE activity, the intracellular pH of the cells is reduced by addition of NH4Cl. The sodium-dependent intracellular pH change is then measured by the intracellular pH-sensitive fluorescein dye, BCECF-AM (Molecular Probes-ThermoFisher Scientific). […] The plate is immediately read for fluorescent intensity at an excitation wavelength of 505 nm and emission wavelength of 550 nm. […]

The next assay relates to Male Sprague-Dawley rats. The experiment in a line: Effect of Example 1 on sodium absorption (urinary sodium excretion after oral NaCl bolus). The class given is in vivo, rat. The conditions noted are these: 2 h urine; for Urinary Sodium to Creatinine Ratio: mean ± SEM. As to the method:
Effect of Example 1 on Sodium Absorption
Urinary sodium excretion following an oral bolus dose of sodium chloride is an indirect measure of sodium absorption in the intestine.
Male Sprague-Dawley with body weights ranging from 200 to 250 g are randomized into groups based on equal mean body weights. Henceforth the following formulation is referred to as “1% HEC”: 1% hydroxyethyl cellulose (HEC) and 0.25% Tween® 80 with antifoam vehicle in water. Example 1 at 0.1 mg/mL (final dose 1 mg/kg dosed in 10 mL/kg volume) is formulated with 1% HEC in a glass vial containing a pre-weighed amount of compound, and then probe sonicating until it appears as a uniform suspension. […] The subsequent dosing solutions of Example 1 are prepared by serial dilutions with 1% HEC. NaCl at 10 mg/ml (final dose 200 mg/kg dosed in 20 ml/kg volume) is formulated by adding sterile water.
On the day before the study, the animals are placed into clean cages without food but with access to water for an overnight fast. On the day of the study, rats are orally dosed with vehicle or varying doses of Example 1. 30 min later, animals are dosed with NaCl, then immediately transferred to metabolic cages. Urine samples are collected for 2 h. Net urine volume is recorded. Urinary sodium, and creatinine are assessed using a clinical biochemistry analyzer.
Values expressed as the ratio of urinary sodium to creatinine (mM/mM) are calculated and presented as mean±SEM. The curves are fitted with 4-parameter logistic curve fitting tool GraphPad Prism 6 to calculate the ED50. For the purpose of curve fitting, the dose of Example 1 is artificially set to 0.001 mg/kg in the software for the vehicle-alone group.

Take `CN1Cc2c(Cl)cc(Cl)cc2[C@H](c2cccc(S(=O)(=O)NCCOCCOCCN/C(=N\C#N)NCCCCN/C(=N/C#N)NCCOCCOCCNS(=O)(=O)c3cccc([C@@H]4CN(C)Cc5c(Cl)cc(Cl)cc54)c3)c2)C1` [Example 1, 2-Cyano-1-[4-[[N′-cyano-N-[2-[2-[2-[[3-[(4S)-6,8-dichloro-2-methyl-3,4-dihydro-1H-isoquinolin-4-yl]phenyl]sulfonylamino]ethoxy]ethoxy]ethyl]carbamimidoyl]amino]butyl]-3-[2-[2-[2-[[3-[(4S)-6,8-dichloro-2-methyl-3,4-dihydro-1H-isoquinolin-4-yl]phenyl]sulfonylamino]ethoxy]ethoxy]ethyl]guanidine]: at human NHE3, 37.9 nM corresponded to half-maximal inhibition (IC50). The compound also registered an ED50 with Male Sprague-Dawley rats (Rattus norvegicus, oral, NaCl bolus 200 mg/kg) of 0.058 mg/kg. Further, the “Urinary Sodium to Creatinine Ratio” value amounted to 1.19 ± 0.19 mM/mM in the assay on Male Sprague-Dawley rats (oral 0.03 mg/kg), 0.80 ± 0.23 mM/mM in the assay on Male Sprague-Dawley rats (oral 0.1 mg/kg), 0.37 ± 0.06 mM/mM with Male Sprague-Dawley rats (oral 0.3 mg/kg) and 0.63 ± 0.23 mM/mM in the assay with Male Sprague-Dawley rats (oral 1.0 mg/kg).

In general, IC50 refers to the concentration at which inhibition is half-maximal. Lower therefore signals greater potency in that assay. For orientation: ED50 means the dose at which the effect has come halfway, by size or by number of responders. Higher therefore signals weaker potency.
